What was measured:
[1] = tested on: rats of Sprague-Dawley stock; assay: Chronic toxicity; assay type: in vivo; conditions: Sprague-Dawley rats of both sexes, oral and intravenous way, 50 mg/kg per day for three months
Protocol: The chronic toxicity of the new derivatives has been studied by oral and intravenous way in the rats of Sprague-Dawley stock of both sexes, of body weight of about 210 g. The new derivatives, used as drops or in aqueous solution, have been administred to groups of 10 animals (5 males and 5 females). The tests have been carried out in parallel with equivalent amounts of ubiquinone (hydroalcoholic solution). The doses have been of 50 mg/kg per day for three months.

[2] = Light stability in oral preparations; assay type: physicochemical

Row | Molecule | toxic effects (chronic toxicity) [1] | stability under the effect of the light [2]
1 | COC1=C(OC)C(=O)C(C/C=C(\C)CC/C=C(\C)CC/C=C(\C)CC/C=C(\C)CC/C=C(\C)CC/C=C(\C)CC/C=C(\C)CC/C=C(\C)CC/C=C(\C)CCC=C(C)C)=C(C)C1=O [ubiquinone, Ubiquinone(10)] | No toxic effects | 
2 | Ubiquinone bisulphite [Example 1] |  | high stability
